Laboratory results from paper PMC6828666, “Discovery of holoenzyme-disrupting chemicals as substrate-selective CK2 inhibitors” (Scientific Reports, 2019).

Legend:
CK2α2β2 holoenzyme = molecular target: T1, CK2α2β2 holoenzyme (Homo sapiens, UniProt P68400); assay: Olig2 phosphorylation assay (CK2β-dependent protein substrate); type: biochemical; conditions: 50 μM compound; GST-Olig-2, CK2α, increasing CK2β
T1 construct: made in house; host or cells: Escherichia coli (CK2α)
Experimental: For Olig2 phosphorylation assay, GST-Olig2 fusion protein (3.7 μg) was incubated with 200 nM CK2α, in the absence or presence of 50 μM compound 1 and increasing concentrations of CK2β. Samples were analyzed by SDS PAGE and subjected to autoradiography. Phosphoproteins were quantified by densitometry scanning. For eIF2 peptide phosphorylation assay, the CK2β-dependent peptide substrate (600 μM) was incubated with CK2α (40–50 nM) and increasing concentrations of compound 1 or/and CK2β.
Fig. S3. Compound 1 inhibits CK2β-dependent phosphorylation of Olig2 transcription factor and CK2β-dependent autophosphorylation. (a) CK2α (200 nM) was incubated with increasing concentrations of CK2β in the absence or presence of compound 1 (50 μM) followed by the addition of GST-Olig2 (3.7 μg), [γ^32P]-ATP (100 μM, 1 μCi) and MgCl2 (10 mM). Samples were analyzed by SDS PAGE and subjected to autoradiography. Left and right parts of the image are from the same gel (see Supplementary Fig. S16). (b) ^32P incorporated into GST-Olig2 was determined by densitometry scanning and is expressed as arbitrary units; (c) CK2β (300 nM) was incubated with increasing concentrations of compound 1, 10 μM [γ^32P] […] Phosphorylated proteins were separated by SDS/PAGE and analyzed by autoradiography (c) or Coomassie Blue staining (d); ^32P incorporation into CK2β was quantified and expressed as arbitrary units (e). […]

CK2α/CK2β interaction = CK2α/CK2β interaction (Homo sapiens, UniProt P68400); assay: SPR competition study of MBP-CK2β binding to GST-CK2α; conditions: 70 μM
Experimental: SPR competition studies (Fig. 2i) were performed using a BIAcore 3000 instrument (BIAcore AB) equipped with a CM5 sensor chip (BIAcore AB). After activation with a solution of N-hydroxysuccinimide and N-ethyl-N-(dimethylaminopropyl)carbodiimide hydrochloride (coupling solution BIAcore AB), the anti-GST antibody diluted at 30 μg/ml in 10 mM acetate buffer pH 5.0 was injected at a flow rate of 5 μL/min for 7 min. All the surfaces were blocked with a 3 min injection at 10 μL/min of 1 M ethanolamine, pH 8.0. GST-CK2α (50 μg/ml) was immobilized on the surface at a flow rate of 5 μL/min in HBS (10 mM Hepes pH 7.3, 0.15 M NaCl, 3 mM EDTA, 0.005% polysorbate 20). MBP-CK2β diluted at 50 μg/ml in HBS buffer was injected over the surface at a flow rate of 5 μL/min in presence of various compound 1 concentration. Regeneration of the surfaces was achieved by injection of 10 mM glycine-HCl pH 2.2. SPR binding studies (Supplementary Fig. S7) were performed using a Reichert SR7000DC instrument optical biosensor (Reichert Technologies) equipped with a CMD500m sensor chip obtained from XanTec Bioanalytics. CK2α was immobilized by a capturing approach using a monoclonal anti-GST antibody (27 kDa, Clone GST-R 6G9 produced in rat, SAB4200055 Sigma Aldrich). […]

[1] = molecular target: T2, CK2 subunit association in MCF10A cells (Homo sapiens, UniProt P68400); assay: Anti-CK2β immunoprecipitation from treated MCF10A cells; type: cell-based; conditions: 75 μM, 4 h; CK2β-dependent and CK2β-independent substrate; vs DMSO
T2 construct: endogenous in cells; host or cells: MCF10A
Experimental: The transient nature of the CK2 holoenzyme has been highlighted by the elucidation of its structure. Furthermore, analysis of the spatiotemporal organization of individual CK2 subunits in living cells has shown that they are highly dynamic[10],[12]. Thus, we evaluated the effect of 6 on the CK2 subunit association in human mammary epithelial cells, using two independent strategies. First, CK2β was immunoprecipitated from extracts of MCF10A cells treated with DMSO as control or 75 μM of 6, and the amount of CK2α or CK2 catalytic activity recovered in the immunoprecipitates were analyzed by western blot and CK2 activity assay.
Anti-CK2β immunoprecipitates were prepared from MCF10A cells incubated with DMSO (0.5%) or 75 μM 6 for 4 h. The corresponding immunoprecipitates were analyzed for the presence of CK2 subunits by Western blot (a) and quantified in (b) or for CK2 activity with CK2β-independent and CK2β-dependent peptide substrate (c). […] (d) In situ proximity ligation images of MCF10A cells incubated with 50 μM 6 for 3 h. (e) Number of fluorescent dots per cell was quantified using the BlobFinder software. n = 120 cells from two independent experiments. Mann Whitney test was used and results were found significant (*p-value = 0.0003 and **p-value = 0.044). TEXT PRINTED IN THE PICTURE: (a) 6: Ratio CK2α/CK2β relative to control: 0.77 (75 μM)

CK2α/CK2β interaction, sequence (P68400 whole entry): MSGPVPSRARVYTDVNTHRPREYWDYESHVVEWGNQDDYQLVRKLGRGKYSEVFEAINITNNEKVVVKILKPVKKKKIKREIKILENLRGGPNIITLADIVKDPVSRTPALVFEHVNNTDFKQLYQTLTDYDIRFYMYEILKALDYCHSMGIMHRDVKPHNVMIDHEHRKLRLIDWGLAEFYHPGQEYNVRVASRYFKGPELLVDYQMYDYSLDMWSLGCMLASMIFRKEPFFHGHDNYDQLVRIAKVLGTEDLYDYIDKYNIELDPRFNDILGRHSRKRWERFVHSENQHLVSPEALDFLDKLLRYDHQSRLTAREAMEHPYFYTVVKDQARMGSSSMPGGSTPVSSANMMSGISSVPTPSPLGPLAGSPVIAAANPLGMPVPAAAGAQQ
T2 sequence (P68400 whole entry): as above
T1 sequence (P68400 whole entry): as above

Row | Structure (SMILES) | decrease in Olig-2 phosphorylation (CK2α2β2 holoenzyme) | reduction of SPR signal (MBP-CK2β binding to GST-CK2α) (CK2α/CK2β interaction) | CK2 activity in anti-CK2β precipitates [1]
1 | COc1[nH]c2ccc(F)cc2c1C(=O)OCC1CCN(CCNS(C)(=O)=O)CC1 [Compound 1] | ~ 50% | about 60% | 
2 | COc1[nH]c2ccc(F)cc2c1C(=O)OCC1CCN(CCNS(=O)(=O)c2ccccc2)CC1.Cl [Compound 6] |  |  | significantly lower
